{"source": "BindingDB's records for patent US11958871", "about": "(Fraunhofer-Gesellschaft Zur Forderung Der Angewandten …, 2024)", "key": {"[1]": {"molecular_target": "T1, Glutamine cyclotransferase-related protein (Porphyromonas gingivalis (strain ATCC BAA-308 / W83), UniProt Q7MT37)", "T1 sequence (Q7MT37 whole entry)": "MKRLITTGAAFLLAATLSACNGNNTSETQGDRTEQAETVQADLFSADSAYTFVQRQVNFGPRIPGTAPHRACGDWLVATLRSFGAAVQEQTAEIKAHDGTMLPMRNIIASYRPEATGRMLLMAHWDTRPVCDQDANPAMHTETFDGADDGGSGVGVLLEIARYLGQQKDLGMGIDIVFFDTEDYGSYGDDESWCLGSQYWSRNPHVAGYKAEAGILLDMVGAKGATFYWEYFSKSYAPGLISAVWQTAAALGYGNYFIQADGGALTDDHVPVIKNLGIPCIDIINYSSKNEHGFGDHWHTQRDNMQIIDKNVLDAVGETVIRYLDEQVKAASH", "experiment": "Inhibition of Glutaminyl Cyclases", "method": "For inhibitor testing, the sample composition was the same as described above, except for the addition of the putative inhibitory compound. […] Inhibitory constants were determined using different concentration of H-Gln-AMC varying from Km-2 Km. Final concentration of bacterial QC was in a range between 25 nM-50 nM."}, "[2]": {"molecular_target": "Glutaminyl-peptide cyclotransferase (Homo sapiens, UniProt Q16769)", "sequence (Q16769 whole entry)": "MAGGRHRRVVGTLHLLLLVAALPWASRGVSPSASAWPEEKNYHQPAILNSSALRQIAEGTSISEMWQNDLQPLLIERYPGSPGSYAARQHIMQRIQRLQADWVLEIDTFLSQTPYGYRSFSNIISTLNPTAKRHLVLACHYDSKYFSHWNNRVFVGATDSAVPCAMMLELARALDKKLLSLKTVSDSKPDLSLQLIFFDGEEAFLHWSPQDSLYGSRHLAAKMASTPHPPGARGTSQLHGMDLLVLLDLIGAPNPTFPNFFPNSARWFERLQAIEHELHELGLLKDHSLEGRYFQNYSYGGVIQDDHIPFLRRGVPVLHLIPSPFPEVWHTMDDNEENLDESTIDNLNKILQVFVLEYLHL"}, "[3]": {"molecular_target": "T2, Peptidase M28 domain-containing protein (Prevotella nigrescens CC14M, UniProt V8CNC2)", "T2 sequence (V8CNC2 whole entry)": "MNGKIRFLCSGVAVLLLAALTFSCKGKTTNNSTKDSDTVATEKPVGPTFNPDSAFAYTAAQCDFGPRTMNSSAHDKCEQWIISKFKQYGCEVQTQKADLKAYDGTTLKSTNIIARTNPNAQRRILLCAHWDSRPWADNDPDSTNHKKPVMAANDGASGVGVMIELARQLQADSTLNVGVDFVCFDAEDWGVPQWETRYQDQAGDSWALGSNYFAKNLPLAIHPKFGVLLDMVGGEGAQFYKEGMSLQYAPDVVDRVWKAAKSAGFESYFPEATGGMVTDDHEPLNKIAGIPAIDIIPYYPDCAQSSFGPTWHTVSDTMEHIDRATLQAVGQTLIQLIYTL"}, "Peptidase, M28 family": {"molecular_target": "T3, Peptidase, M28 family (Tannerella forsythia (strain ATCC 43037 / JCM 10827 / CCUG 21028 A / KCTC 5666 / FDC 338), UniProt G8UMP8)", "T3 sequence (G8UMP8 whole entry)": "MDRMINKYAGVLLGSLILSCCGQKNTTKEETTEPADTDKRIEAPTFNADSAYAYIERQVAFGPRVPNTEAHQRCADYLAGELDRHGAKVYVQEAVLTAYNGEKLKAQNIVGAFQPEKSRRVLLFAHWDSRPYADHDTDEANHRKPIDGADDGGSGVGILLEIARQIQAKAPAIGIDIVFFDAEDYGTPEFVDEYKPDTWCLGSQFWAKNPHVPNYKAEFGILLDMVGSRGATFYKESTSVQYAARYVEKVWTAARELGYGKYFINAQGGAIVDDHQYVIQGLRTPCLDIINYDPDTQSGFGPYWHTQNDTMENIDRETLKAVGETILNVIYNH"}}, "data": [{"smiles": "COc1cccc(CNc2cnc3[nH]cnc3c2)c1", "note": "[US11958871, Example 6]", "values": [{"measurement": "Ki", "setting": "[1]", "result": 77, "unit": "nM"}, {"measurement": "Ki", "setting": "[2]", "result": 599, "unit": "nM"}]}, {"smiles": "c1cc(CNc2cnc3[nH]cnc3c2)cc(N2CCCCC2)c1", "note": "[US11958871, Example 9]", "values": [{"measurement": "Ki", "setting": "[1]", "result": 442, "unit": "nM"}]}, {"smiles": "c1ccc(CNc2ccc3nc[nH]c3n2)cc1", "note": "[US11958871, Example 1]", "values": [{"measurement": "Ki", "setting": "[3]", "result": 9400, "unit": "nM"}]}, {"smiles": "CCCOc1ccc(CNc2cnc3[nH]cnc3c2)cc1", "note": "[US11958871, Example 15]", "values": [{"measurement": "Ki", "setting": "[1]", "result": 34, "unit": "nM"}]}, {"smiles": "NCCOc1ccc(CNc2cnc3[nH]cnc3c2)cc1", "note": "[US11958871, Example 16]", "values": [{"measurement": "Ki", "setting": "[1]", "result": 30, "unit": "nM"}, {"measurement": "Ki", "setting": "[2]", "result": 1070, "unit": "nM"}, {"measurement": "Ki", "setting": "Peptidase, M28 family", "result": 317, "unit": "nM"}]}, {"smiles": "c1nc2cc(NCc3ccsc3)cnc2[nH]1", "note": "[US11958871, Example 8]", "values": [{"measurement": "Ki", "setting": "[1]", "result": 185, "unit": "nM"}, {"measurement": "Ki", "setting": "[2]", "result": 1870, "unit": "nM"}]}, {"smiles": "c1ccc(CNc2cnc3[nH]cnc3c2)nc1", "note": "[US11958871, Example 10]", "values": [{"measurement": "Ki", "setting": "[1]", "result": 395, "unit": "nM"}]}, {"smiles": "Clc1cccc(CNc2cnc3[nH]cnc3c2)c1", "note": "[US11958871, Example 5]", "values": [{"measurement": "Ki", "setting": "[1]", "result": 106, "unit": "nM"}, {"measurement": "Ki", "setting": "[2]", "result": 769, "unit": "nM"}]}, {"smiles": "c1ccc(CNc2cnc3[nH]cnc3c2)cc1", "note": "[US11958871, Example 2]", "values": [{"measurement": "Ki", "setting": "[1]", "result": 149, "unit": "nM"}, {"measurement": "Ki", "setting": "[2]", "result": 1280, "unit": "nM"}, {"measurement": "Ki", "setting": "Peptidase, M28 family", "result": 1400, "unit": "nM"}]}, {"smiles": "COc1ccc(CNc2cnc3[nH]cnc3c2)cc1OC", "note": "[US11958871, Example 13]", "values": [{"measurement": "Ki", "setting": "[1]", "result": 133, "unit": "nM"}, {"measurement": "Ki", "setting": "[2]", "result": 556, "unit": "nM"}]}, {"smiles": "COc1ccc(CNc2cnc3[nH]cnc3c2)cc1", "note": "[US11958871, Example 7]", "values": [{"measurement": "Ki", "setting": "[1]", "result": 83, "unit": "nM"}]}, {"smiles": "Clc1ccc(CNc2cnc3[nH]cnc3c2)cc1Cl", "note": "[US11958871, Example 14]", "values": [{"measurement": "Ki", "setting": "[1]", "result": 53, "unit": "nM"}, {"measurement": "Ki", "setting": "[2]", "result": 431, "unit": "nM"}, {"measurement": "Ki", "setting": "Peptidase, M28 family", "result": 358, "unit": "nM"}]}, {"smiles": "c1nc2cc(NCc3ccc4c(c3)OCCO4)cnc2[nH]1", "note": "[US11958871, Example 12]", "values": [{"measurement": "Ki", "setting": "[1]", "result": 44, "unit": "nM"}, {"measurement": "Ki", "setting": "[2]", "result": 543, "unit": "nM"}, {"measurement": "Ki", "setting": "Peptidase, M28 family", "result": 680, "unit": "nM"}, {"measurement": "Ki", "setting": "[3]", "result": 728, "unit": "nM"}]}, {"smiles": "Fc1cc(CNc2cnc3[nH]cnc3c2)cc(F)c1F", "note": "[US11958871, Example 3]", "values": [{"measurement": "Ki", "setting": "[1]", "result": 157, "unit": "nM"}]}, {"smiles": "c1cncc(CNc2cnc3[nH]cnc3c2)c1", "note": "[US11958871, Example 11]", "values": [{"measurement": "Ki", "setting": "[1]", "result": 139, "unit": "nM"}]}]}
